Source: patent publication US20160031925A1, “AZITHROMYCIN ANTIMICROBIAL DERIVATIVES WITH NON-ANTIBIOTIC PHARMACEUTICAL EFFECT” (priority 2013, published 2016)

Key:
[1] = test system: Staphylococcus aureus ATTC 6538; test: Antimicrobial disk susceptibility test (CLSI M2-A9), S. aureus; assay type: cell-based
Procedure: (§1) Test for the antimicrobial activity of the novel compounds may be performed according to the standards of Clinical and Laboratory Standards Institute, Performance Standards for Antimicrobial Disk Susceptibility Tests; approved Standard; M2-A), vol. 26 NO. 1 9th ed.
as §1, with “A test for” for “Test for”, “compounds were” for “compounds may be”, “ed. The samples were dissolved in 10 ml of sterile Milli-Q water by magnetic stirring overnight at 20° C.” for “ed.”
(§2) Two doses of the samples were tested in duplicate, a) and b). The size of the inhibition zones were measured in mm after incubation.

[2] = test system: Escherichia coli ATCC 8739; test: Antimicrobial disk susceptibility test (CLSI M2-A9), E. coli; assay type: cell-based
Procedure: as §1
as §1, with “A test for” for “Test for”, “compounds were” for “compounds may be”, “ed. The samples were dissolved in 10 ml of sterile Milli-Q water by magnetic stirring overnight at 20° C.” for “ed.”
as §2

[3] = test system: Pseudomonas aeruginosa ATCC 9027; test: Antimicrobial disk susceptibility test (CLSI M2-A9), P. aeruginosa; assay type: cell-based
Procedure: as §1
as §1, with “A test for” for “Test for”, “compounds were” for “compounds may be”, “ed. The samples were dissolved in 10 ml of sterile Milli-Q water by magnetic stirring overnight at 20° C.” for “ed.”
as §2

[4] = test system: Klebsiella pneumonia ATCC 35657; test: Antimicrobial disk susceptibility test (CLSI M2-A9), K. pneumonia; assay type: cell-based
Procedure: as §1
as §1, with “A test for” for “Test for”, “compounds were” for “compounds may be”, “ed. The samples were dissolved in 10 ml of sterile Milli-Q water by magnetic stirring overnight at 20° C.” for “ed.”
as §2

human airway epithelia = conditions: reference 6; cited from earlier work
[5] = 10 μg/disk, one value per organism (reference)

Molecule	size of the inhibition zone, S. aureus a) ([1]; 5 μg/disk, duplicate a))	size of the inhibition zone, S. aureus b) ([1]; 5 μg/disk, duplicate b))	size of the inhibition zone, S. aureus a) ([1]; 10 μg/disk, duplicate a))	size of the inhibition zone, S. aureus b) ([1]; 10 μg/disk, duplicate b))	size of the inhibition zone, E. coli a) ([2]; 5 μg/disk, duplicate a))	size of the inhibition zone, E. coli b) ([2]; 5 μg/disk, duplicate b))	size of the inhibition zone, E. coli a) ([2]; 10 μg/disk, duplicate a))	size of the inhibition zone, E. coli b) ([2]; 10 μg/disk, duplicate b))	size of the inhibition zone, P. aeruginosa a) ([3]; 5 μg/disk, duplicate a))	size of the inhibition zone, P. aeruginosa b) ([3]; 5 μg/disk, duplicate b))	size of the inhibition zone, P. aeruginosa a) ([3]; 10 μg/disk, duplicate a))	size of the inhibition zone, P. aeruginosa b) ([3]; 10 μg/disk, duplicate b))	size of the inhibition zone, K. pneumonia a) ([4]; 5 μg/disk, duplicate a))	size of the inhibition zone, K. pneumonia b) ([4]; 5 μg/disk, duplicate b))	size of the inhibition zone, K. pneumonia a) ([4]; 10 μg/disk, duplicate a))	size of the inhibition zone, K. pneumonia b) ([4]; 10 μg/disk, duplicate b))	effect on transepithelial electrical resistance / processing of tight junction proteins (human airway epithelia)	also measured
CCC1OC(=O)C(C)C(OC2CC(C)(OC)CC(C)O2)C(C)C(OC2OC(C)CC(N(C)C)C2C)C(C)(O)CC(C)CN(C)C(C)C(O)C1(C)O (stereo not drawn) [PP007]	<1 mm	<1 mm	<1 mm	<1 mm	<1 mm	<1 mm	<1 mm	<1 mm	<1 mm	<1 mm	<1 mm	<1 mm	<1 mm	<1 mm	<1 mm	<1 mm	–	–
CCC1OC(=O)C(C)C(OC2CC(C)(OC)C(C)C(C)O2)C(C)C(OC2CC(N(C)C)CC(C)O2)C(C)(O)CC(C)CN(C)C(C)C(O)C1(C)O (stereo not drawn) [PP008]	<1 mm	<1 mm	<1 mm	<1 mm	<1 mm	<1 mm	<1 mm	<1 mm	<1 mm	<1 mm	<1 mm	<1 mm	<1 mm	<1 mm	<1 mm	<1 mm	–	–
CC[C@H]1OC(=O)[C@H](C)[C@@H](O[C@H]2C[C@@](C)(OC)[C@@H](O)[C@H](C)O2)[C@H](C)[C@@H](O[C@@H]2O[C@H](C)C[C@H](N(C)C)[C@H]2O)[C@](C)(O)C[C@@H](C)CN(C)[C@H](C)[C@@H](O)[C@]1(C)O [azithromycin]	–	–	–	–	–	–	–	–	–	–	–	–	–	–	–	–	may increase the transepithelial electrical resistance	–
CC[C@H]1OC(=O)[C@H](C)[C@@H](O[C@H]2C[C@@](C)(OC)[C@@H](O)[C@H](C)O2)[C@H](C)[C@@H](O[C@@H]2O[C@H](C)C[C@H](N(C)C)[C@H]2O)[C@](C)(O)C[C@@H](C)C(=O)[C@H](C)[C@@H](O)[C@]1(C)O [erythromycin]	–	–	–	–	–	–	–	–	–	–	–	–	–	–	–	–	not observed	–
Gentamicin [reference compound]	–	–	–	–	–	–	–	–	–	–	–	–	–	–	–	–	–	size of the inhibition zone, S. aureus [1, 5]: 30.4 mm; size of the inhibition zone, E. coli [2, 5]: 27.9 mm; size of the inhibition zone, P. aeruginosa [3, 5]: 27.2 mm; size of the inhibition zone, K. pneumonia [4, 5]: 24.7 mm
penicillin	–	–	–	–	–	–	–	–	–	–	–	–	–	–	–	–	not observed	–
